Assay results published in publication PMC3908613 (Bioscience Reports, 2014).

Tests used:
BMDC = assay: Cytokine production by LPS-stimulated BMDC (ELISA); type: cell-based, C57BL/6 mice
Method: DCs were generated from the bone marrow or the spleen of C57BL/6 mice as previously described. Briefly, bone marrow cells were cultured for 7 days at 37°C, 5% (v/v) CO2 in complete RPMI medium supplemented with 10 ng/ml recombinant granulocyte-macrophage colony-stimulating factor (GM-CSF; Peprotech). Spleen cells were cultured for 14 days at 37°C, 5% CO2 in complete RPMI containing 10 ng/ml GM-CSF and 1 ng/ml TGFβ (transforming growth factor-β; R&D Systems). NIH3T3 cells (European Cell Culture Collection) were cultured in DMEM (Dulbecco's modified Eagle's medium) supplemented with glutamine, penicillin, streptomycin and 10% (v/v) calf serum (Invitrogen). […] The amounts of TNFα (tumour necrosis factor α), IL6 (interleukin 6) and IL10 in the supernatant were measured using ELISA kits specific for each cytokine (TNFα, IL6; Peprotech, IL10; R&D Systems).

Aurora B = details: cited from earlier work
Lok = biological target: T1, Lok (Mus musculus, UniProt O55098); assay: Activity of Lok immunoprecipitated from BMDC; type: biochemical, C57BL/6 mice; details: immunoprecipitates treated with 1 μM D1870; resting and LPS-stimulated DC
T1 construct: Mst1, Lok and Slk were immunoprecipated from 150 μg, 850 μg and 1 mg of cell lysates respectively; endogenous in cells; host or cells: mouse bone-marrow-derived dendritic cells (BMDC), immunoprecipitate
T1 sequence (O55098 whole entry): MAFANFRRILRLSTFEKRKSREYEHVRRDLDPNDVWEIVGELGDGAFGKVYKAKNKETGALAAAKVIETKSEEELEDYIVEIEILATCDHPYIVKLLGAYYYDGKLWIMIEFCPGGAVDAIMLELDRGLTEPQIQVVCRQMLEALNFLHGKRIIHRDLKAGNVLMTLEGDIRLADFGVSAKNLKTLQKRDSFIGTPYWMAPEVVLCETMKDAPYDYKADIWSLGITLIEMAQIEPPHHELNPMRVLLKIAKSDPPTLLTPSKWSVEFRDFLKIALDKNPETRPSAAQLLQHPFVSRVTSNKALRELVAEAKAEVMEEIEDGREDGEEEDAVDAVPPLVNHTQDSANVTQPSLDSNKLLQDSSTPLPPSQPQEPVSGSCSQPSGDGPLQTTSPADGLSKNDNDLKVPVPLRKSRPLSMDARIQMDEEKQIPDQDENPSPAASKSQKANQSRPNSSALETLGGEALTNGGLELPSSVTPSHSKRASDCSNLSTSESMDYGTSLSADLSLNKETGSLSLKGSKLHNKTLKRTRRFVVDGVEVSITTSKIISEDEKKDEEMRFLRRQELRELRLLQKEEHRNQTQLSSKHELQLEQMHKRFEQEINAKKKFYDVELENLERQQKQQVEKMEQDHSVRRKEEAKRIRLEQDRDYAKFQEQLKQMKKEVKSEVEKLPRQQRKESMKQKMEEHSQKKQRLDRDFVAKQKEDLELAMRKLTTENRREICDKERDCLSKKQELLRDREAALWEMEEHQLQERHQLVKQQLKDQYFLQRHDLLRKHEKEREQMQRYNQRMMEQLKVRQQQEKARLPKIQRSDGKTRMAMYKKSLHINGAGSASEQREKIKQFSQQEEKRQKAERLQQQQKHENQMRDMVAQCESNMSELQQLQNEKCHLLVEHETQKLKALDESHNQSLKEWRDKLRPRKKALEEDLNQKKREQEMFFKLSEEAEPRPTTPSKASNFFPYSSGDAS
Method: Equal numbers of BMDC (1×10^7/dish) were incubated in 15 cm dishes in RPMI supplemented with 0.3% FCS for 3 h at 37°C then incubated for 30 min with or without 50 ng/ml LPS. The cells were washed once in cold PBS and lysed in the lysis buffer described above. Mst1, Lok and Slk were immunoprecipated from 150 μg, 850 μg and 1 mg of cell lysates respectively with 2 μg of anti-MST1 (Cell Signalling), anti-Slk (Bethyl) or anti-Lok (Bethyl) or control IgG (Santa Cruz Biotech) coupled to G-protein Sepharose (Amersham) for 1 h at 4°C. […] Kinase assays were performed as described above.
A combination of SILAC and nucleotide acyl
Alexander J. EDGAR*, Matthias TROST†, Colin WATTS*1 and Rossana ZARU*1
*Division of Cell Signalling and Immunolog y, University of Dundee, Dow Street, Dundee DD1 5EH, U.K., and †MRC Protein Phosphor ylation and Ubiquitylation Unit, College of Life Sciences, University of Dundee, Dow Street, Dundee DD1 5EH, U.K.
Supplementary Table S1 is available at http://www.bioscirep.
Mst1, Lok and Slk activities in DC either unstimulated or stimulated with LPS (50 ng/ml) for 30 min at 37 ◦ C. Immuno- […]
of triplicate stimulations. *P < 0.05, **P < 0.01, ***P < 0.001, ns not signiﬁcant.
1 Correspondence may be addressed to either of these authors (email c.watts@dundee.ac.uk or r.zaru@dundee.ac.uk). […]

rSlk = biological target: T2, rSlk (Homo sapiens, UniProt Q9H2G2); assay: Kinase assay for recombinant Slk; type: biochemical; details: 25 μM ATP, bovine histone H1 substrate
T2 construct: purchased Millipore
T2 sequence (Q9H2G2 whole entry): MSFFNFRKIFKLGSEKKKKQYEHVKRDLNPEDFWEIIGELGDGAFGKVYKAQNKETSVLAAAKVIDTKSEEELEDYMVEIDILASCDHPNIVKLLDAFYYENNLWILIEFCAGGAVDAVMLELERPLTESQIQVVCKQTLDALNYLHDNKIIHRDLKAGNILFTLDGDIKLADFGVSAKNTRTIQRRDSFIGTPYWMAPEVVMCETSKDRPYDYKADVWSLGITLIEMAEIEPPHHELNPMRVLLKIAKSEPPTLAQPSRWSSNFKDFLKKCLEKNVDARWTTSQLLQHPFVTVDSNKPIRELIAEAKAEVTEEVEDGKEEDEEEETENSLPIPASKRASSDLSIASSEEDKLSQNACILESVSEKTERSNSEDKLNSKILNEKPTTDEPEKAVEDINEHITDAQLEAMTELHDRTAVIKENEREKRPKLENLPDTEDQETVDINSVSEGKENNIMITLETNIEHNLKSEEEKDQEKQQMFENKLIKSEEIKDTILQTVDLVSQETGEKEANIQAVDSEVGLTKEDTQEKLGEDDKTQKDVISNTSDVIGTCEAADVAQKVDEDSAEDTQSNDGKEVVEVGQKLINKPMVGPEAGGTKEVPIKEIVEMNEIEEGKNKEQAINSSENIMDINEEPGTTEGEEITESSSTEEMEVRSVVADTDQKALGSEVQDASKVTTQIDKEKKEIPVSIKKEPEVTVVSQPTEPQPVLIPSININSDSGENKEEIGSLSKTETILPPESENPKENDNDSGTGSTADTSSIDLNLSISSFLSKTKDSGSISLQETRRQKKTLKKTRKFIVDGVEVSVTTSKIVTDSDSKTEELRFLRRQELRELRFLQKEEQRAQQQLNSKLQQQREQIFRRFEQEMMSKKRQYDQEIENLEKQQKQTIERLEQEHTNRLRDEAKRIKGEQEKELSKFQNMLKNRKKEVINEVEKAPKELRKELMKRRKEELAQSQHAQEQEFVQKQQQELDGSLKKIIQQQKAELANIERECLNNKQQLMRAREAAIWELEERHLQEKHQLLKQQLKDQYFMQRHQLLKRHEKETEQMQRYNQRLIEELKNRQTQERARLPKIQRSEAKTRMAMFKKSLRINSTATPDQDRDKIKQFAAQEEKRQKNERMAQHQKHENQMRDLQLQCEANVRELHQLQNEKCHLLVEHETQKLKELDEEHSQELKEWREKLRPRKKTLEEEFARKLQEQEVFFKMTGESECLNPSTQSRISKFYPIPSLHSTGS
Method: The kinase reaction for Lok and Slk was supplemented with 12.5 mM sodium glycerophosphate and 0.25 mM sodium orthovanadate. The reactions were incubated for 15–20 min at 30°C then terminated and analysed as described previously [14].

[1] = LPS 50 ng/ml, 18 h, increasing concentrations of inhibitor

Which IL6 secretion (BMDC; [1]) does the source give for `CC(C)CCN1c2nc(Nc3cc(F)c(O)c(F)c3)ncc2N(C)C(=O)C1C` (stereo not shown) [D1870, BI-D1870] here?
The IL6 secretion was “dose-dependent inhibition”.

And the IL10 secretion (BMDC; [1])?
Its IL10 secretion is “dose-dependent inhibition”.

And the TNFα production (BMDC; [1])?
The TNFα production was “not by D1870”.

What about the “mRNA levels of IL6 and IL10” value (BMDC; after 1 or 3 h of LPS stimulation, data not shown) of the same compound?
Its value is “rapidly inhibited”.

What about the IC50 (Aurora B) of the same compound?
Its IC50 is 0.34 µM.

And the “kinase activity of Lok immunoprecipitated from DC” value (Lok)?
Its value is “substantially inhibited”.

What about the IC50 (rSlk) of the same compound?
Its IC50 is 0.25 µM.
